Experimental data taken from patent US7759345B2, “Antitumoral derivatives of ET-743” (priority 2001, dated 2010).

Experiments:
K-562 = test: Inhibition of cells growth by colorimetric assay (SRB), K-562; type: cell-based; conditions: K-562, SRB, 48 hours exposure
Outline: (§1)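 Human cancer and endothelial lines are seeded at 5×10^3 cells per well and, after 18 h, treated for 48 h with compound dissolved in DMSO/EtOH/PBS (0.5:0.5:99) at 10 to 10^−8 μg/ml. Cell mass is quantified by SRB staining (OD 490 nm), and growth inhibition, total growth inhibition and cell kill are calculated from triplicate wells.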

A-549 = test: Inhibition of cells growth by colorimetric assay (SRB), A-549; type: cell-based; conditions: A-549, SRB, 48 hours exposure
Outline: as §1

SK-MEL-28 = test: Inhibition of cells growth by colorimetric assay (SRB), SK-MEL-28; type: cell-based; conditions: MEL-28, SRB, 48 hours exposure
Outline: as §1

HT-29 = test: Inhibition of cells growth by colorimetric assay (SRB), HT-29; type: cell-based; conditions: SRB, 48 hours exposure
Outline: as §1

LoVo = test: Inhibition of cells growth by colorimetric assay (SRB), LoVo; type: cell-based; conditions: LOVO, SRB, 48 hours exposure
Outline: as §1

LoVo-Dox = test: Inhibition of cells growth by colorimetric assay (SRB), LoVo-Dox; type: cell-based; conditions: SRB, 48 hours exposure
Outline: as §1

DU-145 = test: Inhibition of cells growth by colorimetric assay (SRB), DU-145; type: cell-based; conditions: SRB, 48 hours exposure
Outline: as §1

LNCaP = test: Inhibition of cells growth by colorimetric assay (SRB), LNCaP; type: cell-based; conditions: LNCAP, SRB, 48 hours exposure
Outline: as §1

SK-BR-3 = test: Inhibition of cells growth by colorimetric assay (SRB), SK-BR-3; type: cell-based; conditions: SK-BR3, SRB, 48 hours exposure
Outline: as §1

IGROV-1 = test: Inhibition of cells growth by colorimetric assay (SRB), IGROV-1; type: cell-based; conditions: IGROV, SRB, 48 hours exposure
Outline: as §1

IGROV-ET = test: Inhibition of cells growth by colorimetric assay (SRB), IGROV-ET; type: cell-based; conditions: IGROV-ET, SRB, 48 hours exposure
Outline: as §1

SK-OV-3 = test: Inhibition of cells growth by colorimetric assay (SRB), SK-OV-3; type: cell-based; conditions: SRB, 48 hours exposure
Outline: as §1

PANC-1 = test: Inhibition of cells growth by colorimetric assay (SRB), PANC-1; type: cell-based; conditions: SRB, 48 hours exposure
Outline: as §1

HMEC1 = test: Inhibition of cells growth by colorimetric assay (SRB), HMEC1; type: cell-based; conditions: SRB, 48 hours exposure
Outline: as §1

Source text for Heart: (§2) Toxicity was asssessed by the methods reported in Toxicology in Vitro, 15 (2001) 571-577, J. Luber Narod et al.: “Evaluation of the use of in vitro methodolodies as tools for screening new compounds for potential in vivo toxicity”.
Source text for Kidney: as §2
Source text for Liver: as §2
Source text for Myelo: as §2
Source text for Skeletal: as §2

SMILES: COc1cc2c(cc1OC(=O)Cc1cc(=O)oc3cc(N(C)C)ccc13)CCN[C@]21CS[C@@H]2c3c(OC(C)=O)c(C)c4c(c3[C@H](COC1=O)N1C2[C@H]2c3c(cc(C)c(OC)c3OC(=O)Cc3cc(=O)oc5cc(N(C)C)ccc35)C[C@@H]([C@@H]1O)N2C)OCO4 (some centres unmarked) [Compound 77]
- K-562 TGI (K-562): 7.77E-10
- GI50 (K-562; read-out: K-562 GI50): 0.277 nM
- LC50 (50% cell killing) (K-562; read-out: K-562 LC50): 37.9 nM
- TGI A-549 (A-549): 3.64E-09
- GI50 (A-549; read-out: GI50 A-549): 2.11 nM
- LC50 (concentration for 50% cell killing) (A-549; read-out: A-549 LC50): 6.29 nM
- MEL-28 TGI (SK-MEL-28): 5.06E-10
- GI50 (SK-MEL-28; read-out: MEL-28 GI50): 0.266 nM
- CC50 (SK-MEL-28; read-out: MEL-28 LC50): 0.962 nM
- HT-29 TGI (HT-29; HT-29): 9.52E-09
- GI50 (HT-29; HT-29, read-out: HT-29 GI50): 2.96 nM
- LC50 (concentration for 50% cell killing) (HT-29; Homo sapiens, HT-29, 48 h, read-out: HT-29 LC50, HT-29): 10100 nM
- LOVO TGI (LoVo): 3.96E-09
- GI50 (LoVo; read-out: LOVO GI50): 1.91 nM
- LC50 (concentration for 50% cell killing) (LoVo; read-out: LOVO LC50): 8.21 nM
- CC50 (LoVo-Dox; Homo sapiens, 48 h, read-out: LOVO-DOX LC50, LOVO-DOX): 10100 nM
- LOVO-DOX TGI (LoVo-Dox; LOVO-DOX): 9.39E-08
- GI50 (LoVo-Dox; LOVO-DOX, read-out: LOVO-DOX GI50): 31.3 nM
- DU-145 TGI (DU-145; DU-145): 1.45E-09
- GI50 (DU-145; DU-145, read-out: DU-145 GI50): 0.488 nM
- CC50 (DU-145; Homo sapiens, DU-145, 48 h, read-out: DU-145 LC50, DU-145): 10100 nM
- LNCAP TGI (LNCaP): 6.12E-10
- GI50 (LNCaP; read-out: LNCAP GI50): 0.328 nM
- CC50 (LNCaP; read-out: LNCAP LC50): 1.58 nM
- SK-BR3 TGI (SK-BR-3): 2.04E-09
- GI50 (SK-BR-3; read-out: SK-BR3 GI50): 0.475 nM
- CC50 (SK-BR-3; read-out: SK-BR3 LC50): 8.12 nM
- IGROV TGI (IGROV-1): 1.53E-09
- GI50 (IGROV-1; read-out: IGROV GI50): 0.454 nM
- CC50 (IGROV-1; read-out: IGROV LC50): 8.82 nM
- IGROV-ET TGI (IGROV-ET): 9.57E-08
- GI50 (IGROV-ET; read-out: IGROV-ET GI50): 4.22 nM
- CC50 (IGROV-ET; read-out: IGROV-ET LC50): 303 nM
- GI50 (SK-OV-3; Homo sapiens, SK-OV-3, 48 h, SK-OV3, read-out: SK-OV3 GI50): 2.55 nM
- LC50 (SK-OV-3; Homo sapiens, SK-OV-3, 48 h, read-out: SK-OV3 LC50, SK-OV3): 10100 nM
- SK-OV3 TGI (SK-OV-3; SK-OV3): 7.76E-09
- GI50 (PANC-1; Homo sapiens, PANC-1, 48 h, PANC-1, read-out: PANC-1 GI50): 3.27 nM
- LC50 (concentration for 50% net cell kill) (PANC-1; Homo sapiens, PANC-1, 48 h, read-out: PANC-1 LC50, PANC-1): 6300 nM
- PANC-1 TGI (PANC-1; PANC-1): 9.14E-09
- HMEC-1 TGI (HMEC1; HMEC-1): 5.28E-08
- GI50 (HMEC1; HMEC-1, read-out: HMEC-1 GI50): 5.28 nM
- LC50 (HMEC1; Homo sapiens, HMEC-1, 48 h, read-out: HMEC-1 LC50, HMEC-1): 10100 nM
- Toxicity Data Liver (Liver): 9.53E-09
- Toxicity Data Heart (Heart): 1.64E-08
- Toxicity Data Myelo (Myelo): 8.52E-09
- Toxicity Data Skeletal (Skeletal): 2.20E-09
- Toxicity Data Kidney (Kidney): 3.22E-09
